System: form deprivation myopia model of guinea pigs
Test: FDM guinea pig model, subconjunctival injection, salmeterol/tiotropium/vinpocetine
Settings: FDM, vinpocetine 1 μM alone, subconjunctival, 2 weeks
Description: The form deprivation myopia model of guinea pigs described in the present invention was used to evaluate the efficacy. […] On the first day of the experiment, guinea pigs were subjected to form deprivation at 8 a.m. using a mask method, with the right eye covered (experimental eye) and the left eye uncovered (contralateral eye). Starting from the day of modeling, solvents or drugs for the corresponding groups were given to the experimental eyes at 9-10 a.m. every day by eyeball subconjunctival injection at an injection volume of 100 μL, once a day for 2 weeks. The refraction and axial parameters of the animals were detected before the start of the efficacy experiment and at the end of the experiment. All data collection and processing methods were the same as in other embodiments of the present invention. The statistical basis was the difference between the experimental eye and the contralateral eye of the same subject individual.

CCOC(=O)C1=C[C@]2(CC)CCCN3CCc4c(n1c1ccccc41)[C@@H]32 [vinpocetine]
refraction change towards negative, axial length elongation and vitreous chamber depth increase vs negative control: significantly inhibited

Source: patent US20240165089A1, “METHOD FOR TREATING MYOPIA WITH VINPOCETINE” (EYE HOSPITAL, WENZHOU MEDICAL UNIVERSITY, priority 2021, published 2024)
